Entries after “also recorded” stand apart in the source; their conditions may differ.
What was measured:
[1] = system: cochlear macrophages; assay: Cochlear macrophage ablation, DAPI and CX3CR1-GFP staining of cochlear sections; format: in vivo, mouse; conditions: for ablation of cochlear macrophages: DAPI and CX3CR1-GFP staining of cochlea, saline- and cisplatin-treated mice, vs no pexidartinib
Description: The CSF1R inhibitor can inhibit, directly and/or indirectly, macrophages, or microglia, or both. Inhibition and/or killing of macrophages and/or microglia can be referred to as “ablation.” The macrophages can comprise cochlear resident macrophages, or recruited macrophages, or both. Fractalkine receptor CX3CR1 is a regulator of macrophage function and can be utilized to label macrophages. The resident macrophages can comprise perivascular resident macrophage-like melanocytes (PVM/Ms). PVM/Ms can regulate the integrity of the blood labyrinth barrier (BLB), a barrier between the vasculature and the inner ear fluids (endolymph or perilymph). The BLB can control exchanges between the blood and fluids from intrastitial space in cochlea. The BLB can maintain the inner ear fluid ionic homeostasis. The BLB can restrict entry of most blood-borne (toxic) substances into inner ear tissues. The BLB can selectively pass ions, fluids, and nutrients into cochlea. The CSF1R inhibitor can affect, directly and/or indirectly, the blood labyrinth barrier (BLB) and one or more of its functions.
(§1) A clinically relevant mouse model of cisplatin-induced ototoxicity was developed and used to examine whether macrophages play a role in hearing loss in response to cisplatin. Pexidartinib is an inhibitor of the colony stimulating factor 1 receptor (CSF1R), which aids in the survival of microglia and cochlear resident macrophages.

[2] = system: outer hair cell function; assay: Distortion product otoacoustic emissions (DPOAE) in cisplatin-treated mice; format: in vivo, mouse; conditions: cisplatin plus pexidartinib vs cisplatin only; 16, 22, 32, 40 kHz
[3] = system: outer hair cells; assay: Outer hair cell survival, Myosin 7a staining and quantification of cochlear hair cells; format: in vivo, mouse; conditions: cisplatin mice co-treated with PLX3397, Myosin 7a staining, 16, 22.4, 32, 40 kHz regions
Experimental: Hearing sensitivity was assessed prior to pexidartinib/cisplatin administration and after the end of the third cycle of the treatment protocol using auditory brainstem responses (ABR) and distortion product otoacoustic emissions (DPOAE). […] Histology can be performed using MyosinVIla (turquoise).
The data are supportive of macrophage ablation being protective against cisplatin-induced hearing loss. […] Data and other information relevant to the experimental examples are depicted in the various figures of the drawings and summarized herein.

[4] = system: cisplatin-induced hearing loss; assay: Hearing sensitivity by auditory brainstem responses (ABR) in cisplatin-treated mice; format: in vivo, mouse; conditions: cisplatin plus pexidartinib vs cisplatin only, after end of third cycle
[5] = Mass spectrometry measurement of platinum content in microdissected inner ear tissues; format: in vivo, mouse; conditions: spiral ganglion neurons, organ of Corti, stria vascularis, utricle, saccule
[6] = Cisplatin-induced weight loss in mouse model of cisplatin ototoxicity; format: in vivo; conditions: cisplatin-treated mice with macrophage ablation
Description: as §1

Row | Structure (SMILES) | number of macrophages in the cochlea ([1]; cisplatin vs control, whole cochlear section) | ablation of cochlear macrophages [1] | ablation of cochlear macrophages ([1]; listed as PL3397) | OHC function (DPOAE amplitudes) [2] | OHC survival [3] | OHC survival ([3]; listed as PLX3397) | cisplatin-induced hearing loss (ABR threshold shifts) [4] | cisplatin-induced hearing loss (ABR threshold shifts) ([4]; listed as PLX3397) | cisplatin entry into the inner ear (platinum content) [5] | cisplatin-induced weight loss [6]
1 | N.N.[Cl][Pt][Cl] [cisplatin] | reduced number of macrophages in the cochlea |  |  |  |  |  |  |  |  | 
2 | FC(F)(F)c1ccc(CNc2ccc(Cc3c[nH]c4ncc(Cl)cc34)cn2)cn1 [pexidartinib] |  | ablate macrophages; also recorded: effectively ablates cochlear macrophages; also recorded: ablation of macrophages | effectively ablates cochlear macrophages | protected from the loss of OHC function; also recorded: higher DPOAE amplitudes | increased OHC survival; also recorded: protection of outer hair cells against cisplatin-induced hair cell loss | greater OHC survival | significantly reduced hearing loss | significantly reducing cisplatin-induced hearing loss | reduces cisplatin entry into the inner ear; also recorded: reduced cisplatin entry to the inner ear | significantly reduced cisplatin-induced weight loss

— patent publication US20260000652A1, “IMPEDING PLATINUM-BASED CHEMOTHERAPEUTIC INDUCED OTOTOXICITY USING A COLONY STIMULATING FACTOR 1 RECEPTOR INHIBITOR” (THE UNITED STATES OF AMERICA, AS REPRESENTED BY THE …, priority 2022, published 2026)
